Experimental data from ChEMBL document CHEMBL3991601, “The target landscape of clinical kinase drugs” (Science, 2017).
Activity calls are given as the source filed them. For most assays here, no stated cut-off is given here; in the data, actives have a measured Kd and inactives only a lower limit.

Key:
[1] = target: Cyclin-dependent kinase 6 (Homo sapiens, UniProt Q00534)
[2] = target: Tyrosine-protein kinase Lck (Homo sapiens, UniProt P06239)
[3] = target: RAC-alpha serine/threonine-protein kinase (Homo sapiens, UniProt P31749)
Chain of RAC-alpha serine/threonine-protein kinase (P31749 whole entry): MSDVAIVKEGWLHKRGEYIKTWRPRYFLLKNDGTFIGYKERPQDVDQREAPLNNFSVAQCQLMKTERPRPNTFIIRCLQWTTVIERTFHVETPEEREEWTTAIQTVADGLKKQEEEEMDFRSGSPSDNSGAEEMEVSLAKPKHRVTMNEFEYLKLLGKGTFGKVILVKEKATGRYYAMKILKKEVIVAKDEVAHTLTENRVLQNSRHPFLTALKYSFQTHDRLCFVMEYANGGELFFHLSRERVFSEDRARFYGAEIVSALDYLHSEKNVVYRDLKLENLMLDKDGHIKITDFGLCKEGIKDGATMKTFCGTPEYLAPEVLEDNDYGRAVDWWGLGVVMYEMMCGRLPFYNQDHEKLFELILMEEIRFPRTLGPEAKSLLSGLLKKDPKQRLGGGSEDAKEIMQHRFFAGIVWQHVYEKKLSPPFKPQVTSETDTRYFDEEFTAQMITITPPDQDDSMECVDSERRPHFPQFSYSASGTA

[4] = target: Hepatocyte growth factor receptor (Homo sapiens, UniProt P08581)
[5] = target: Bone morphogenetic protein receptor type-1A (Homo sapiens, UniProt P36894)
Chain of Bone morphogenetic protein receptor type-1A (P36894 whole entry): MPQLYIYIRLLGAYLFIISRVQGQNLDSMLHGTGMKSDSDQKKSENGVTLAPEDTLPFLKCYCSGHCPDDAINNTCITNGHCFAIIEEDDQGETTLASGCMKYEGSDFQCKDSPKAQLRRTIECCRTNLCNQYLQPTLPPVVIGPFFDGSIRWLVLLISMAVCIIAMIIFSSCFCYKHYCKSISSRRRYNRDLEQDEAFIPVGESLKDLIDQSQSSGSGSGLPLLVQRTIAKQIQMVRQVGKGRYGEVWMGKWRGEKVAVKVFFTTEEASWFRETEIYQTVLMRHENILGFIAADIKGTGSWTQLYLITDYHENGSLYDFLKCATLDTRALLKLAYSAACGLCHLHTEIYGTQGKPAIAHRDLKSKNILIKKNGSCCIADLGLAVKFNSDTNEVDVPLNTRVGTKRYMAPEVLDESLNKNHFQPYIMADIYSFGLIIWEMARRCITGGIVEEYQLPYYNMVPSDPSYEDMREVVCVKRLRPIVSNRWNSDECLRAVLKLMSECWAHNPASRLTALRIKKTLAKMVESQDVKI

[6] = target: MAP kinase-activated protein kinase 2 (Homo sapiens, UniProt P49137)
Chain of MAP kinase-activated protein kinase 2 (P49137 whole entry): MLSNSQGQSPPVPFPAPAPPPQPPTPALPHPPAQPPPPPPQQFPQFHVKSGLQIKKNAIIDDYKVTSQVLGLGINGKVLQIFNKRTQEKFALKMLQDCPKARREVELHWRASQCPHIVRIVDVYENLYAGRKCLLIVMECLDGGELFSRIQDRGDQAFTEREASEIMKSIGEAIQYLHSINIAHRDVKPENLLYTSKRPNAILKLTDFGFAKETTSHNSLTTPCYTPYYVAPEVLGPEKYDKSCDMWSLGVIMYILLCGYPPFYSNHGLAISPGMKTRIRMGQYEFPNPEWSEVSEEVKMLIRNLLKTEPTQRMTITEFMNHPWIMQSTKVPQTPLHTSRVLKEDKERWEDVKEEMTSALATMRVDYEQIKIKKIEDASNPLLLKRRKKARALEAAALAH

[7] = target: T1, ATP-dependent RNA helicase DDX1 (Homo sapiens, UniProt Q92499)
T1 sequence (Q92499 whole entry): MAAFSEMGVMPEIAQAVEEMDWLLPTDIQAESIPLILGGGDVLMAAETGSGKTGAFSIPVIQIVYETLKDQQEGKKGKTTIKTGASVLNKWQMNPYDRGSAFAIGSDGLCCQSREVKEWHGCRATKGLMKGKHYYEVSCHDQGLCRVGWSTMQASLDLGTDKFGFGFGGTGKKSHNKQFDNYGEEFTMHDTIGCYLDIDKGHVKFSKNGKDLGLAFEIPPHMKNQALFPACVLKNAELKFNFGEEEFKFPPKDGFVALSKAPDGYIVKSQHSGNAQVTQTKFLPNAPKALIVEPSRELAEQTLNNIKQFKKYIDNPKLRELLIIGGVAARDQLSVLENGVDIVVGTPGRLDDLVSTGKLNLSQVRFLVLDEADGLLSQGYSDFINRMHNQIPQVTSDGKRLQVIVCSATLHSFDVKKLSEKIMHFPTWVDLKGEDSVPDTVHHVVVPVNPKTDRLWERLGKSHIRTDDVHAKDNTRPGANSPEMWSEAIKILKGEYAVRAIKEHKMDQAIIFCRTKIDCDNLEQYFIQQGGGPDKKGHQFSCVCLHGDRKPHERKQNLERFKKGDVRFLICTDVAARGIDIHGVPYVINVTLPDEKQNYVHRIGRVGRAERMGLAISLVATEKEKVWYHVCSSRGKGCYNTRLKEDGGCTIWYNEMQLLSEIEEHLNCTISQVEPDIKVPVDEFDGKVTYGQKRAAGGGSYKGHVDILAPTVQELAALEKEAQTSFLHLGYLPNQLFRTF

[8] = target: T2, Interleukin-1 receptor-associated kinase 3 (Homo sapiens, UniProt Q9Y616)
T2 sequence (Q9Y616 whole entry): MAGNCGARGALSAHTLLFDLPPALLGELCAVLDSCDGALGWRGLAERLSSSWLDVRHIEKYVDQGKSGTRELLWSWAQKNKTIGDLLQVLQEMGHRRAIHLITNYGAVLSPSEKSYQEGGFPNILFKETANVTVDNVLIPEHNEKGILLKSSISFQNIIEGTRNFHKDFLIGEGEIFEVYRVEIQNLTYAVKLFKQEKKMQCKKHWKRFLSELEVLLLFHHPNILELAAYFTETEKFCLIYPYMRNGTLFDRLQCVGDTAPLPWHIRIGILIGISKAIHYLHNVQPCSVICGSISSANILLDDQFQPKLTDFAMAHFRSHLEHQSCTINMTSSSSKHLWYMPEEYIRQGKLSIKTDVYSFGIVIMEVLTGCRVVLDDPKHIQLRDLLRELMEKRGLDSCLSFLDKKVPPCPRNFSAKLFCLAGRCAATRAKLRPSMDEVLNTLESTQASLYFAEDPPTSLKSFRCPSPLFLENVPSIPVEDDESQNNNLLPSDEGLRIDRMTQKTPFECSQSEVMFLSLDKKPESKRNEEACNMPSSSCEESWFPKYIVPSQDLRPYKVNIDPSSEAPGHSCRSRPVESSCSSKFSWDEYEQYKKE

[9] = target: Cyclin-dependent kinase 13 (Homo sapiens, UniProt Q14004)
Chain of Cyclin-dependent kinase 13 (Q14004 whole entry): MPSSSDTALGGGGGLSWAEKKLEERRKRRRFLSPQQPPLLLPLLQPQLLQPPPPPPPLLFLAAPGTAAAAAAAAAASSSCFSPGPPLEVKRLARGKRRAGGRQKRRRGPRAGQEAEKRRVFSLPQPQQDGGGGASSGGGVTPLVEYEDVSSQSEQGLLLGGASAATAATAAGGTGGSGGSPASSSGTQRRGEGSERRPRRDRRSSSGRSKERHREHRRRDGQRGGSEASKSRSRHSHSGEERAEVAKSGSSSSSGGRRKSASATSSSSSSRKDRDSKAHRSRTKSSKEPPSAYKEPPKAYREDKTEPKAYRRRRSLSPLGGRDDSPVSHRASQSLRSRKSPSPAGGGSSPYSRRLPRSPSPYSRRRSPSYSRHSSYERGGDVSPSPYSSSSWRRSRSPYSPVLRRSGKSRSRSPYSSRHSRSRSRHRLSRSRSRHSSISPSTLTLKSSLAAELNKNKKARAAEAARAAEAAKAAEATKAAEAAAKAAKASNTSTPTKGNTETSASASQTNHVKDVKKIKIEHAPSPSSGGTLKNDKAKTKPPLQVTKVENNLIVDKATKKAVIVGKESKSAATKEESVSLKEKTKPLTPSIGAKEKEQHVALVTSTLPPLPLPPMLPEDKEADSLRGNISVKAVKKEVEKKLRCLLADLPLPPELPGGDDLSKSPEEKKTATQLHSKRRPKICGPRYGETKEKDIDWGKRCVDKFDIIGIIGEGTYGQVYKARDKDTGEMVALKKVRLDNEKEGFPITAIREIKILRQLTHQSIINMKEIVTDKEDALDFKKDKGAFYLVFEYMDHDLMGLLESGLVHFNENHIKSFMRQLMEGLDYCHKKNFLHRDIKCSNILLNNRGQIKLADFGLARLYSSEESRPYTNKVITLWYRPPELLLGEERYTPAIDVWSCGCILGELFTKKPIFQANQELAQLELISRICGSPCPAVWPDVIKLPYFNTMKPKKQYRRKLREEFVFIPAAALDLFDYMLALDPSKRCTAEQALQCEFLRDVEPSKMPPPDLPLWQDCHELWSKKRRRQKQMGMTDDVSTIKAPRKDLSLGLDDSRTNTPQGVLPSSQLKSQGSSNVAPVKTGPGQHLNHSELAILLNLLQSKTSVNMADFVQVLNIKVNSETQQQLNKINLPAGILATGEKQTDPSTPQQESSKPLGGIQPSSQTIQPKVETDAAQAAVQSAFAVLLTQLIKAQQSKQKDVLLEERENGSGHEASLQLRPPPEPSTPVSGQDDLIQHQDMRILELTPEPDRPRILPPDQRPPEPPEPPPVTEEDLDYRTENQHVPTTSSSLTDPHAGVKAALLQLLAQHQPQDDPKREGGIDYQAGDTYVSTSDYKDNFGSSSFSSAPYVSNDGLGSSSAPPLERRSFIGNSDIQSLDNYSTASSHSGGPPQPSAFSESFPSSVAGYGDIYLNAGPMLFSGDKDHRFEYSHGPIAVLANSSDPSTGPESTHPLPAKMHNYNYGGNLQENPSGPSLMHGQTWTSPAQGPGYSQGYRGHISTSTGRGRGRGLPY

[10] = target: T3, Mitogen-activated protein kinase kinase kinase kinase 2 (Homo sapiens, UniProt Q12851)
T3 sequence (Q12851 whole entry): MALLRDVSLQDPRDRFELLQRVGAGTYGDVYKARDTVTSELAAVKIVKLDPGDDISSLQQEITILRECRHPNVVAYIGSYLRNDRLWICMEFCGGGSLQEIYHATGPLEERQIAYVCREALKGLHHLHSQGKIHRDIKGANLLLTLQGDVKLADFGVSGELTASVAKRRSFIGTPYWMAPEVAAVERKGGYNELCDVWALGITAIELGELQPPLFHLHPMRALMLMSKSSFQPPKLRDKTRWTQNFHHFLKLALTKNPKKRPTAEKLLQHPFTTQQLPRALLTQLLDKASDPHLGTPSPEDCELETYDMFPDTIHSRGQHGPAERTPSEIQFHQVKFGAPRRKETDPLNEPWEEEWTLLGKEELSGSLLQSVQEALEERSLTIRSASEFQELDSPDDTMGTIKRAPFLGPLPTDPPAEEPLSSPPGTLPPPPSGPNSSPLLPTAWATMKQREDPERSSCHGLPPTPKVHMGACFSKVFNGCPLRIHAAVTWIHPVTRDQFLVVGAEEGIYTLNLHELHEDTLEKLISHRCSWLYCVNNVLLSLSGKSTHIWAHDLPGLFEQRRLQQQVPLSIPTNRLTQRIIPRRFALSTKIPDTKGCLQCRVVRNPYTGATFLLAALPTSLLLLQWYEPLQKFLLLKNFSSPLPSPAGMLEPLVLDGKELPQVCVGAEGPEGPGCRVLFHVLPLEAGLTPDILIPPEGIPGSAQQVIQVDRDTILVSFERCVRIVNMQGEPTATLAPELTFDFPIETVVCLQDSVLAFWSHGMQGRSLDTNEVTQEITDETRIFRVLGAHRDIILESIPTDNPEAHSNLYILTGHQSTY

[11] = target: Membrane-associated progesterone receptor component 1 (Homo sapiens, UniProt O00264)
Chain of Membrane-associated progesterone receptor component 1 (O00264 whole entry): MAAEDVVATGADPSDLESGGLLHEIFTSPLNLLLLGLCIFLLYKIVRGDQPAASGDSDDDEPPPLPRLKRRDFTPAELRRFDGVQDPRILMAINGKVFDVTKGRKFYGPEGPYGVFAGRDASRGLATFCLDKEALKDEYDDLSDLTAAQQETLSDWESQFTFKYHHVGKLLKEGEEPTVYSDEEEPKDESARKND

Chain of Tyrosine-protein kinase Lck (P06239 whole entry): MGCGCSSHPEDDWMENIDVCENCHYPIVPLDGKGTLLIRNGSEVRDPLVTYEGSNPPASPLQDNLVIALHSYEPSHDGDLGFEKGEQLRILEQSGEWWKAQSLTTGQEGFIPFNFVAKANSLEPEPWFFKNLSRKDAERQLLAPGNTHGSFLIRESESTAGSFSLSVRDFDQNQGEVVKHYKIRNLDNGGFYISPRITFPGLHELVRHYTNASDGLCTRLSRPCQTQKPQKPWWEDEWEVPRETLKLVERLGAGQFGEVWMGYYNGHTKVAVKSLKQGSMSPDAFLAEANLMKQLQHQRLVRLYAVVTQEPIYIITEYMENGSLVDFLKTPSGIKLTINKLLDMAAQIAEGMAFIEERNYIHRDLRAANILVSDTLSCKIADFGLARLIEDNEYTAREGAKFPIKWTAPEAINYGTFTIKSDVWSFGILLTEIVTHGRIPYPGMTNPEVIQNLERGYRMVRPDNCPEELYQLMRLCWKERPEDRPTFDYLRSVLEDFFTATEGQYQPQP
Chain of Cyclin-dependent kinase 6 (Q00534 whole entry): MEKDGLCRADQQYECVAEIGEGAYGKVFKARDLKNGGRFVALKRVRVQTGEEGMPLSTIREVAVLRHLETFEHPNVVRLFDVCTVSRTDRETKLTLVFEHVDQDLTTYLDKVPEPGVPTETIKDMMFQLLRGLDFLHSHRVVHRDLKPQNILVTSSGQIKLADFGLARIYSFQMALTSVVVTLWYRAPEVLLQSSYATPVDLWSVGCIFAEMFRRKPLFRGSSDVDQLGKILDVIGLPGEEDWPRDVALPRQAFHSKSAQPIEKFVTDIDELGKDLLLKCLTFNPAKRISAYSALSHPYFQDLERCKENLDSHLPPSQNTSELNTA

| Compound | Kd [1] | Kd [2] | Kd [3] | Kd [4] | Kd [5] | Kd [6] | Kd [7] | Kd [8] | Kd [9] | Kd [10] | Kd [11] |
| --- | --- | --- | --- | --- | --- | --- | --- | --- | --- | --- | --- |
| COc1cc2c(Nc3ccc(Cl)c(Cl)c3F)ncnc2cc1OC[C@@H]1C[C@@H]2CN(C)C[C@@H]2C1 [TESEVATINIB] | > 30 µM (inactive) | 0.207 µM (active) | > 30 µM (inactive) | > 30 µM (inactive) | > 30 µM (inactive) | 1.52 µM (active) | > 30 µM (inactive) | > 30 µM (inactive) | > 30 µM (inactive) | > 30 µM (inactive) | > 30 µM (inactive) |
| O=C(Cc1ccc(-c2ccc(OCCN3CCOCC3)cc2)cn1)NCc1ccccc1 [TIRBANIBULIN] | > 30 µM (inactive) | > 30 µM (inactive) | > 30 µM (inactive) | > 30 µM (inactive) | > 30 µM (inactive) | > 30 µM (inactive) | > 30 µM (inactive) | > 30 µM (inactive) | > 30 µM (inactive) | > 30 µM (inactive) | > 30 µM (inactive) |
| O=C1NC(=O)[C@@H](c2cn3c4c(cccc24)CCC3)[C@@H]1c1c[nH]c2ccccc12 [TIVANTINIB] | > 30 µM (inactive) | > 30 µM (inactive) | > 30 µM (inactive) | 0.511 µM (active) | > 30 µM (inactive) | > 30 µM (inactive) | > 30 µM (inactive) | > 30 µM (inactive) | > 30 µM (inactive) | > 30 µM (inactive) | > 30 µM (inactive) |
| C[C@@H](NC(=O)c1ncnc(N)c1Cl)c1ncc(C(=O)Nc2cc(C(F)(F)F)c(Cl)cn2)s1 [TOVORAFENIB] | > 30 µM (inactive) | > 30 µM (inactive) | > 30 µM (inactive) | > 30 µM (inactive) | > 30 µM (inactive) | > 30 µM (inactive) | > 30 µM (inactive) | > 30 µM (inactive) | > 30 µM (inactive) | > 30 µM (inactive) | > 30 µM (inactive) |
| Cc1cc(Nc2ncnc3ccc(NC4=NC(C)(C)CO4)cc23)ccc1Oc1ccn2ncnc2c1 [TUCATINIB] | > 30 µM (inactive) | > 30 µM (inactive) | > 30 µM (inactive) | > 30 µM (inactive) | > 30 µM (inactive) | > 30 µM (inactive) | > 30 µM (inactive) | > 30 µM (inactive) | > 30 µM (inactive) | > 30 µM (inactive) | > 30 µM (inactive) |
| CN1C/C=C/CCOc2cccc(c2)-c2ccnc(n2)Nc2cccc(c2)C1 [ZOTIRACICLIB] | 1.6 µM | > 30 µM (inactive) | > 30 µM (inactive) | > 30 µM (inactive) | > 30 µM (inactive) | > 30 µM (inactive) | > 30 µM (inactive) | 0.286 µM (active) | > 30 µM (inactive) | 1.36 µM (active) | > 30 µM (inactive) |
